From patent US20150216182A1, “COMPOSITIONS AND METHODS OF THE ATTRACTION AND REPULSION OF INSECTS” (Olfactor Laboratories, Inc., priority 2012, published 2015)

Assays:
[1] = system: larvae; test: larvicidal activity assay; format: in vivo; conditions: 24 hour exposure, dead larvae / total larvae
Protocol: A 6-well plate (Corning Life Sciences, Tewksbury, Mass.) is used to test a compound's larvicidal activity. […] After a 24 hour exposure, the number of dead larvae are counted and recorded.
The results are presented in Table 17 as % lethality (the number of dead larvae divided by the total number of larvae).

[2] = system: female mosquitoes; conditions: single compound, female mosquitoes, two hours; for % mortality with 0.2 mg/ml: 0.2 mg/ml on filter paper; for % mortality with 2 mg/ml: 2 mg/ml on filter paper
[3] = system: cpA neurons; test: extracellular single-sensillum electrophysiology: activation of cpA neuronal activity; conditions: for Class: Table 6, single compounds, increase over baseline cpA neuronal activity; for Comp A Class / Comp B Class: Table 9; for Comp A Class: component A tested individually; for Comp B Class: component B tested individually; for Class B (activator class of the individual component): Table 15, single component alone, Mod Actv
[4] = system: bed bugs (Cimex lectularius); test: bed bug repellency assay; format: in vivo; conditions: compound or combination on filter paper harborage, ten bed bugs
Protocol: Compounds and combinations of compounds of the present invention were assayed for their ability to repel bed bugs (Cimex lectularius) using a bed bug repellency assay. This assay takes advantage of the bed bug's natural tendency to seek harborage. Two petri dishes were obtained and the inner areas of each were sanded down (leaving the perimeter smooth.) Talc was applied on the perimeter and on the inside walls of the petri dishes with a small paint brush to prevent bed bugs from escaping. A cut off top portion of a solo bathroom cup was placed upside down in the center of one petri dish. A large plastic secondary container was gathered and a paper towel was laid down inside the bottom. The petri dish was then placed inside and ten bed bugs were placed inside the cut off portion of the solo cup. Next, two pieces of filter paper were cut down the middle to yield 4 equally sized halves. 3 pieces were placed inside a glass dish ([…]) and the remaining piece was placed in a separate dish. All 4 pieces were folded down the middle to create a “tent” or “harborage” when laid such that the folded crease faced up. 100 microliters of isopropyl alcohol was pipetted into 3 pieces of filter paper (all housed in the first glass dish.) In a separate 4 ml vial, 90 microliters of isopropyl alcohol was combined and vortexed with 10 microliters of the compound or compound combination being tested. 100 microliters of this solution [comprising a total of 100 mg of compound(s)] was pipetted onto the filter paper in the separate dish. All filter papers were then allowed to dry. Once dry, experiments were conducted first with two filter paper halves comprising only the isopropyl alcohol (control experiment) and then with the remaining filter paper halves [one with only isopropyl alcohol and one comprising the test compound(s).] Filter paper halves were placed on opposing sides of experimental petri dishes and bed bugs were allowed to move freely within the dishes for 5 minutes. Movement of bed bugs beneath each filter paper tent was recorded. […] In the Table, “Rep” refers to repellency and “Cmpd” refers to compound.

[5] = system: cpA neurons; test: extracellular single-sensillum electrophysiology: inhibition of CO2-responsive (cpA) neuronal activity; conditions: for Class: Table 10, single compounds, percent reduction in cpA activity compared to baseline
[6] = system: female mosquitoes; test: whole plant or invertebrate; conditions: 2 h

| Molecule | % Lethality with 0.25% compound conc. ([1]; 0.25% compound) [% lethal] | % Lethality at 100 ppm ([1]; 100 ppm compound) [% lethal] | % mortality with 0.2 mg/ml [2] [%] | % mortality with 2 mg/ml [2] [%] | Class [3] | Comp A Class [3] | Comp B Class [3] | Class B (activator class of the individual component) [3] | % Rep (bed bug repellency) [4] [%] | Class [5] | Class (inhibitor class of the individual component) ([5]; Table 13, single component alone, Inh = inhibitor) | pest or weed control at 0.25 % ([1]; 0.25% compound, read-out: % Lethality with 0.25% compound conc.) [%] | pest or weed control at 100 ppm ([1]; 100 ppm compound, read-out: % Lethality at 100 ppm) [%] | mortality at 200 µg/mL ([6]; read-out: % mortality with 0.2 mg/ml) [%] | mortality at 2000 µg/mL ([6]; read-out: % mortality with 2 mg/ml) [%] |
| --- | --- | --- | --- | --- | --- | --- | --- | --- | --- | --- | --- | --- | --- | --- | --- |
| O=CCCc1ccccc1 [OLI0029, phenylpropylaldehyde] | 100 | 0 | 0 | 15 | Moderate Activator (Moderate activators yield an increase in neuronal activity that is between 40 and 60 spk/sec over baseline neuronal activity) | Mod | Mod | Mod | 100 |  |  |  |  |  |  |
| 2-ethyl-5(6)-methylpyrazine [OLI0032] |  |  | 0 | 0 | Mild Activator (mild activators yield an increase in neuronal activity that is between 20 and 40 spk/sec over baseline neuronal activity) |  |  |  |  |  |  |  |  |  |  |
| CCCCCC(=O)CC [OLI0075, octanone-3] | 100 | 50 | 0 | 0 |  |  |  |  |  | Moderate Inhibitor (moderate inhibitors (reducing activity by 40-60%)) | Mod |  |  |  |  |
| CC(=O)/C=C/C=C(C)C [OLI0059] | 100 | 58 | 0 | 0 | Mild Activator (mild activators yield an increase in neuronal activity that is between 20 and 40 spk/sec over baseline neuronal activity) |  |  |  | 87 |  |  |  |  |  |  |
| methoxy cinnamic aldehyde [OLI0112] | 100 | 0 | 0 | 100 |  |  |  |  | 23 |  |  |  |  |  |  |
| CCCCCC(C)=O [OLI0092, methylamylketone] |  |  |  |  |  |  | Mild Inh (mild inhibitors (reducing activity by 20-40%)) |  | 8 | Mild Inhibitor (mild inhibitors (reducing activity by 20-40%)) |  | 73 | 32 | 0 | 0 |
| CCCC1CCC(=O)O1 (centres unmarked) [OLI0024, gamma-heptalactone] | 100 | 0 | 0 | 0 | Moderate Activator (Moderate activators yield an increase in neuronal activity that is between 40 and 60 spk/sec over baseline neuronal activity) | Mod | Mod | Mod | 71 |  |  |  |  |  |  |
| CC1=C2CCC(C)CC2OC1=O (centres unmarked) [OLI0111, Menthalactone] | 100 | 33 | 0 | 100 |  |  |  |  | 13 |  |  |  |  |  |  |
| COC(/C=C/c1ccccc1)OC [OLI0106, cinnamic aldehyde dimethyl acetal] | 100 | 10 | 0 | 100 |  |  |  |  | 90 |  |  |  |  |  |  |
| C/C=C(\C)C=O [OLI0013, trans-2-methyl-2-butenal] | 72 | 0 | 0 | 0 | Strong Activator (strong activators yield an increase in activity that is >60 spk/sec over baseline neuronal activity) |  |  |  |  |  |  |  |  |  |  |
| N#C/C=C/c1ccccc1 [OLI0020, cinnamyl nitrile] | 100 | 100 | 0 | 100 | Moderate Activator (Moderate activators yield an increase in neuronal activity that is between 40 and 60 spk/sec over baseline neuronal activity) |  | Mod | Mod | 56 |  |  |  |  |  |  |
